What was measured:
[1] = test system: HSC-2-Luc inoculated into tongue; assay: HSC-2 orthotopic transplantation mouse model; format: in vivo, nude mice; conditions: for ILS (%): Compound (1) 0.09 mg/kg
[2] = test system: KPL-4 subcutaneous xenograft; assay: KPL-4 xenograft model as monotherapy (FIG. 12); format: in vivo, nude mice
Description: A human HER-2 positive breast cancer cell line KPL-4, which had been cultured in a DMEM containing 10% FBS, and penicillin-streptomycin, was adjusted to a concentration of 1×10^8 cells/mL with Hanks' Balanced Salt Solution to prepare a cell suspension. The cell suspension was inoculated in a volume of 100 μL into a subcutaneous part of a right flank of nude mice, 8 weeks of ages (CAnN.Cg-Foxnlnu/CrlCrlj, female, Charles River Laboratories Japan Inc.). Eleven days after cell inoculation (Day 1), the shortest diameter and the longest diameter of a tumor in each mouse were measured by using an electronic digital caliper (Digimatic™ caliper, Mitutoyo Corporation), so as to calculate the volume of the tumor in accordance with the following calculation formulae: […]
(§1) On the basis of the volumes of tumors obtained on Day 1, the mice were grouped such that averages of the tumor volumes were substantially equal among the groups. The experiment was conducted on groups each consisting of six mice. The test compound was dissolved in DMSO and a solution was stored in the freezer before use. Immediately before the administration, the stock solution was diluted with saline. The test compound in saline was intravenously once-weekly administered at 20 μg/kg, 60 μg/kg, or 180 μg/kg for 2 weeks (on Day 1 and Day 8).

[3] = test system: human angiosarcoma CTG-2041 tumor fragments; assay: CTG-2041 xenograft as monotherapy (FIG. 17); format: in vivo, mice; conditions: 100 μg/kg i.v. Day 1 and Day 8
Description: Tumor fragments of human angiosarcoma CTG-2041 were implanted s.c. in the left flank of female mice. Tumor growth was monitored twice a week using digital caliper, so as to calculate the volume of the tumor in accordance with the following calculation formula: […]
When the volume of tumors reached approximately 200 mm^3, animals are matched by tumor volume into treatment or control groups and dosing initiated on Day 1. Each group was consisted with five mice. Compound (1) was dissolved in DMSO and a solution was stored in the freezer before use. Compound (1) (100 μg/kg) diluted in saline and intravenously injected on Day 1 and Day 8.

[4] = test system: human endometrial cancer cell line AN3CA xenograft; assay: AN3CA endometrial cancer xenograft as monotherapy (FIG. 18); format: in vivo, nude mice; conditions: 180 μg/kg i.v. Day 1 and Day 8
Description: A human endometrial cancer cell line AN3CA, which had been cultured in an E-MEM containing 10% FBS, and penicillin-streptomycin, was adjusted to a concentration of 1.4×10^8 cells/mL with Hanks' Balanced Salt Solution to prepare a cell suspension, and the suspension was mixed with Geltrex® (Thermo Fisher Scientific Inc., #A1413202) in a ratio of 1:1 to prepare a cell suspension in a concentration of 7×10^7 cells/mL. The cell suspension was inoculated in a volume of 100 μL into a subcutaneous part of a right flank of nude mice, 6 weeks of ages (CAnN.Cg-Foxnlnu/CrlCrlj, female, Charles River Laboratories Japan Inc.). Twelve days after cell inoculation (Day 1), the shortest diameter and the longest diameter of a tumor in each mouse were measured by using an electronic digital caliper (Digimatic™ caliper, Mitutoyo Corporation), so as to calculate the volume of the tumor in accordance with the following calculation formulae: […]
as §1, with “five” for “six”, “The test compound in saline was intravenously once-weekly administered at 20 μg/kg, 60 μg/kg, or 180 μg/kg for 2 weeks (on Day 1 and Day 8).” left out

[5] = test system: human bladder carcinoma cell line RT4; assay: Bladder carcinoma cell line growth inhibition assay, RT4; format: cell-based; conditions: 72 h, 3 days incubation, CellTiter-Glo 2.0
Description: In this assay, the growth inhibitory activity of Compound (1) in human bladder carcinoma cell lines RT4, RT112/84, and UM-UC-3 was measured. RT4 and RT112/84 cells were maintained in a RPMI-1640 (FUJIFILM Wako Pure Chemical Corporation, 189-02025) medium containing 10% fetal bovine serum (FBS: SIGMA Life Science, 172012-500ML), and penicillin and streptomycin (FUJIFILM Wako Pure Chemical Corporation, 168-23191) in a 5% CO2 incubator (37° C.). UM-UC-3 cells were maintained in an E-MEM (FUJIFILM Wako Pure Chemical Corporation, 051-07615) medium containing 10% FBS, 1 mM Sodium Pyruvate (FUJIFILM Wako Pure Chemical Corporation, 190-14881), and penicillin and streptomycin in a 5% CO2 incubator (37° C.). To each well of a 96 well plate (Coming, 3904), 90 μL of each cell suspension adjusted to a concentration of 5.55×10^3 cells/mL (RT4 or UM-UC-3) or 3.33×10^4 cells/mL (RT112/84) with the culture medium was added, and the cells were incubated overnight in a 5% CO2 incubator (37° C.). On the next day, 10 μL of Compound (1) in three-fold dilution series suspended in the culture medium was added to each well, and the resultant was incubated for 3 days in a 5% CO2incubator (37° C.). Then, cell viability was determined by CellTiter-Glo® 2.0 Assay (Promega Corporation, G9243) with ARVO-X4 Multimode Plate Reader (Perkin-Elmer, Wellesley, MA). […]

**Q.** With `C=C1C[C@@H]2CC[C@@]34C[C@H]5O[C@H]6[C@@H](O3)[C@H]3O[C@H](CC[C@@H]3O[C@H]6C5O4)CC(=O)O[C@@H]3[C@@H](C)[C@@H]4O[C@@H]5C[C@]6(C[C@@H]7O[C@]8(C[C@H](C)[C@@H]9O[C@H](CN)[C@H](O)C[C@@H]9O8)C[C@H](C)[C@@H]7O6)O[C@@H]5C[C@@H]4O[C@H]3C[C@H]3O[C@@H](CC[C@@H]1O2)C[C@@H](C)C3=C` (stereo in doubt) [Compound (1)] as the molecule, how does the bioluminescence signal ([1]; Compound (1) with cetuximab, after Day 14) read?
**A.** Its bioluminescence signal is “clearly reduced the bioluminescence signal in all mice”.

**Q.** And the “survived mice on Day 100” value ([1]; Compound (1)+CTX combination group, n=16)?
**A.** The value was 10.

**Q.** And the “ILS (%)” value ([1]; single agent, Q7Dx3: cetuximab 5 mg/kg, cisplatin 5 mg/kg)?
**A.** Its value is 238%.

**Q.** And the “ILS (%)” value ([1]; with cetuximab 5 mg/kg, Q7Dx3: cisplatin 5 mg/kg)?
**A.** Its value is over 1150%.

**Q.** What about the antitumor effect ([2]; 60 μg/kg i.v. Day 1 and Day 8) of the same molecule?
**A.** Its antitumor effect is “tumor regression”.

**Q.** What about the antitumor effect ([2]; 180 μg/kg i.v. Day 1 and Day 8) of the same molecule?
**A.** Its antitumor effect is “tumor regression”.

**Q.** And the “xenograft tumors on Day 15” value ([2]; 180 μg/kg i.v. Day 1 and Day 8)?
**A.** Its value is “completely eradicated the xenograft tumors in all mice”.

**Q.** And the antitumor activity [3]?
**A.** The antitumor activity was “tumor regression”.

**Q.** And the antitumor activity [4]?
**A.** Its antitumor activity is “tumor regression”.

**Q.** And the IC50 [5]?
**A.** Its IC50 is 0.11 nM.

Source: US20240309014A1, “MACROCYCLIC COMPOUNDS AND USES THEREOF” (President and Fellows of Harvard College, priority 2017, published 2024)
